Consider 22 compounds from patent US4383113A, “Agricultural sulfonamides” (E. I. Du Pont de Nemours and Company, priority 1981, dated 1983).

The subject of assay [1] is barnyardgrass. Kind of assay: Test A post-emergence. It counts as in vivo, Echinochloa crusgalli. The arrangement: key: 0 = no effect, 10 = maximum effect; letter = response symbol. The text has this:
(§1) The activity of these compounds was discovered in a number of greenhouse and field tests. The ratings are based on a numerical scale extending from 0=no effect, to 10=maximum effect. The accompanying descriptive symbols have the following meanings:
(§2) Seeds of crabgrass (Digitaria spp.), barnyardgrass (Echinochloa crusgalli), wild oats (Avena fatua), cassia (Cassia tora), morningglory (Ipomoea spp.), cocklebur (Xanthium spp.), sorghum, corn, soybean, rice, wheat and nutsedge tubers (Cyperus rotundus) were planted in a growth medium and treated preemergence with a nonphytotoxic solvent solution of the compounds of Table XII. Other batches of seeds and tubers for all of the foregoing weed and crop plants were planted at the same time as controls. The control plantings were untreated; i.e., neither any compound nor any solvent was applied. At the same time, cotton having five leaves (including cotyledonary ones), bush beans with the third trifoliate leaf expanding, crabgrass with two leaves, barnyardgrass with two leaves, wild oats with two leaves, cassia with three leaves (including cotyledonary ones), morningglory with four leaves (including the cotyledonary ones), cocklebur with four leaves (including the cotyledonary ones), sorghum with four leaves, corn with four leaves, soybean with two cotyledonary leaves, rice with three leaves, wheat with one leaf, and nutsedge with three-five leaves were sprayed with a nonphytotoxic solvent solution of the compounds of Table XII. Other groups of all the same weed and crop plants were sprayed with the same nonphytotoxic solvent so as to provide control plants. Preemergence and postemergence treated plants and controls were maintained in a greenhouse for sixteen days, then all treated plants were compared with their respective controls and rated visually for response to treatment.

The test system of assay [2] is wild oats. The assay can be described thus: Test A post-emergence. It is filed as in vivo, Avena fatua. On the set-up: key: 0 = no effect, 10 = maximum effect; letter = response symbol.
From the text: as §1, §2

Assay [3] has as its system wheat. Kind of assay: Test A post-emergence. It is filed as in vivo. On the set-up: key: 0 = no effect, 10 = maximum effect; letter = response symbol.
From the text: as §1, §2

The test system of assay [4] is cocklebur. Kind of assay: Test A post-emergence. It is filed as in vivo, Xanthium spp. The arrangement: key: 0 = no effect, 10 = maximum effect; letter = response symbol. Particulars: 0.4 kg/ha.
From the text: as §1, §2

Assay [5] deals with nutsedge. The assay can be described thus: Test A post-emergence. It is filed as in vivo, Cyperus rotundus. The arrangement: key: 0 = no effect, 10 = maximum effect; letter = response symbol. The settings on record: 0.4 kg/ha.
From the text: as §1, §2

For assay [6], the system named is crabgrass. The assay can be described thus: Test A post-emergence. It is filed as in vivo, Digitaria spp. The arrangement: key: 0 = no effect, 10 = maximum effect; letter = response symbol. Particulars: 0.4 kg/ha.
From the text: as §1, §2

Assay [7] has as its system morningglory. The assay can be described thus: Test A post-emergence. It counts as in vivo, Ipomoea spp. On the set-up: key: 0 = no effect, 10 = maximum effect; letter = response symbol. The settings on record: 0.4 kg/ha.
From the text: as §1, §2

Assay [8] concerns cassia. Kind of assay: Test A post-emergence. It is filed as in vivo, Cassia tora. The arrangement: key: 0 = no effect, 10 = maximum effect; letter = response symbol. Particulars: 0.4 kg/ha.
From the text: as §1, §2

For assay [9], the system named is bush bean. The assay can be described thus: Test A post-emergence. It is filed as in vivo, bush beans. The arrangement: key: 0 = no effect, 10 = maximum effect; letter = response symbol. The settings on record: 0.4 kg/ha.
Assay [10] relates to corn. The assay can be described thus: Test A post-emergence. It is filed as in vivo. On the set-up: key: 0 = no effect, 10 = maximum effect; letter = response symbol. Particulars: 0.4 kg/ha.
From the text: as §1, §2

Assay [11] relates to morningglory. Kind of assay: Test A pre-emergence. On the set-up: key: 0 = no effect, 10 = maximum effect; letter = response symbol. It counts as in vivo, Ipomoea spp. Particulars: 0.4 kg/ha.
From the text: as §1, §2

Assay [12] concerns barnyardgrass. The assay can be described thus: Test A pre-emergence. It counts as in vivo, Echinochloa crusgalli. The arrangement: key: 0 = no effect, 10 = maximum effect; letter = response symbol. The settings on record: 0.4 kg/ha.
From the text: as §1, §2

Assay [13] concerns cocklebur. Kind of assay: Test A pre-emergence. It counts as in vivo, Xanthium spp. On the set-up: key: 0 = no effect, 10 = maximum effect; letter = response symbol. The settings on record: 0.4 kg/ha.
From the text: as §1, §2

The subject of assay [14] is cassia. Kind of assay: Test A pre-emergence. The arrangement: key: 0 = no effect, 10 = maximum effect; letter = response symbol. Particulars: 0.4 kg/ha. It counts as in vivo, Cassia tora.
From the text: as §1, §2

In assay [15] the test system is wheat. Kind of assay: Test A pre-emergence. It counts as in vivo. On the set-up: key: 0 = no effect, 10 = maximum effect; letter = response symbol. Particulars: 0.4 kg/ha.
From the text: as §1, §2

In assay [16] the test system is soybean. Kind of assay: Test A pre-emergence. It counts as in vivo. The arrangement: key: 0 = no effect, 10 = maximum effect; letter = response symbol. Particulars: 0.4 kg/ha.
From the text: as §1, §2

The subject of assay [17] is sorghum. The assay can be described thus: Test A pre-emergence. It counts as in vivo. On the set-up: key: 0 = no effect, 10 = maximum effect; letter = response symbol. Particulars: 0.4 kg/ha.
From the text: as §1, §2

Assay [18] has as its system purple nutsedge. The assay can be described thus: Test F post-emergence. It is filed as in vivo, Cyperus rotundus. The text has this: Purple nutsedge tubers (Cyperus rotundus) were planted about 2 cm deep in Fallsington silt loam contained in plastic pots 10 cm in diameter. Five tubers were put in each pot. Compounds of this invention were sprayed dissolved in a non-phytotoxic solvent at a volume rate of 560 l/ha. in four different methods of treatment, i.e., soil surface spray, tuber/soil spray, soil incorporated and post-emergence. For the soil surface spray, the compounds were sprayed on the firmed soil surface immediately after planting. For the tuber/soil spray, the compounds were sprayed on the exposed tubers and subtending soil before the untreated covering soil was added. Soil incorporation treatments were mixed in the covering soil. Post-emergence treatments were sprayed on the nutsedge foliage and surrounding soil surface after the nutsedge had emerged and had reached the height of about 12 cm.
Immediately after spraying the surface spray, tuber/soil spray and soil incorporated treatments were misted with about 0.3 cm of water over a 90 minute period and then placed in the greenhouse. Post-emergence treatments were placed directly into the greenhouse and watered carefully so that treatments would not be washed from the foliage.

`COC(=O)c1ccccc1S(=O)(=O)NC(=O)Nc1ncccn1` [drawing 418]: the response rating was 9C in [1] (2 kg/ha), 2G in assay [2] (2 kg/ha) and 5G in assay [3] (2 kg/ha).
For the compound `CCC(C)OC(=O)c1ccccc1S(=O)(=O)NC(=O)Nc1nc(C)cc(OC)n1` (stereo not shown) [drawing 424], the response rating is 9C in assay [4]; 8G in assay [5]; 8G in [2] (0.4 kg/ha); 0 in [6]; 10C in assay [7].
Turning to `CCCCCCCCCCOC(=O)c1ccccc1S(=O)(=O)NC(=O)Nc1nc(C)cc(OC)n1` [drawing 428], the response rating came out at 7G in [5]; 5G in [2] (0.4 kg/ha); 0 in assay [6]; 3C in assay [3] (0.4 kg/ha); 5G in assay [8].
Regarding `COc1cc(C)nc(NC(=O)NS(=O)(=O)c2ccccc2C(=O)CCC(C)C)n1` [drawing 449], the response rating in assay [1] (0.4 kg/ha) is given as 9C; in [9], 10D; in [10], 9H; in [7], 10C.
Take `COc1nc(C)nc(NC(=O)NS(=O)(=O)c2ccccc2C(=O)OC(C)Cc2ccccc2)n1` (stereo not shown) [drawing 457]: the response rating is reported as 9C in assay [1] (0.4 kg/ha); 9C in [4]; 7G in assay [5]; 9C in assay [9]; 9C in assay [6]; 9C in assay [10]. In addition, the response rating in assay [8] and in assay [7] was 10C in each case.
As for `COc1nc(C)nc(NC(=O)NS(=O)(=O)c2ccccc2C(=O)OC(C)CCl)n1` (stereo not shown) [drawing 459], the response rating is listed as 9C in [4]; 9C in assay [9]; 3G in assay [2] (0.4 kg/ha); 2G in assay [3] (0.4 kg/ha); 10C in [7].
As for `COc1nc(C)nc(NC(=O)NS(=O)(=O)c2ccccc2C(=O)OCc2ccc(Cl)cc2)n1` [drawing 460], the response rating in [5] stood at 0; in assay [2] (0.4 kg/ha) it was 2C; in assay [3] (0.4 kg/ha), 0; in [7], 9C.
On to `COC(=O)c1cc([N+](=O)[O-])ccc1S(=O)(=O)NC(=O)Nc1nc(C)cc(OC)n1` [drawing 462], for which the response rating in [4] is recorded as 9C; in assay [5], 9G; in assay [9] it was 9C; in [8] it was 9C; in [7], 9C.
As to `COc1cc(C)nc(NC(=O)NS(=O)(=O)c2ccccc2C(=O)OC2CCOC2)n1` (stereo not shown) [drawing 513], the response rating is listed as 9G in assay [11]; 9H in [12]; 9G in assay [13]; 9G in assay [14]; 9H in assay [15]; 9H in assay [16].
With `COc1cc(C)nc(NC(=O)NS(=O)(=O)c2ccccc2C(=O)OCCOCCOCCCl)n1` [drawing 515], the response rating in [11] was determined as 9G; in [12], 9H; in [13] it was 9G; in [14] it was 9C; in [16] it was 9H.
On to `CNC(=O)c1ccccc1S(=O)(=O)NC(=O)Nc1nc(C)cc(OC)n1` [drawing 533], for which the response rating is listed as 9G in [13], 9G in [14], 9H in [15] and 9H in [16].
As for `COc1cc(C)nc(NC(=O)NS(=O)(=O)c2ccccc2C(=O)SC)n1` [drawing 544], the response rating was determined as 9G in [11]; 9G in assay [13]; 9G in assay [14]; 9H in assay [17]; 9H in assay [16].
Regarding `COC(=O)c1ccccc1S(=O)(=O)NC(=O)Nc1nc(C)cc(C)n1` [drawing 591], the “response rating after 4 weeks” value in assay [18] (.008 kg/ha) is given as 9C; in assay [18] (.016 kg/ha), 9C; in assay [18] (.032 kg/ha) it was 10C; in assay [18] (.064 kg/ha), 10C.
Turning to `COC(=O)c1ccccc1S(=O)(=O)NC(=O)Nc1nc(C)cc(OC)n1` [drawing 592], the “response rating after 4 weeks” value in assay [18] (.008 kg/ha) is 9C; in assay [18] (.016 kg/ha), 9C; in [18] (.032 kg/ha), 10C; in assay [18] (.064 kg/ha) it was 10C.
`COC(=O)c1ccccc1S(=O)(=O)NC(=O)Nc1nc(OC)cc(OC)n1` [drawing 593]: the “response rating after 4 weeks” value in [18] (.004 kg/ha) was 8C; in assay [18] (.008 kg/ha), 10C; in [18] (.016 kg/ha) it was 10C; in assay [18] (.032 kg/ha) it was 9C; in assay [18] (.064 kg/ha), 10C.
Turning to `COC(=O)c1ccccc1S(=O)(=O)NC(=O)Nc1nc(C)nc(OC)n1` [drawing 594], the “response rating after 4 weeks” value worked out at 0 in assay [18] (.004 kg/ha), 2G in assay [18] (.008 kg/ha) and 2G in [18] (.016 kg/ha).
With `COC(=O)c1ccccc1S(=O)(=O)NC(=O)Nc1nc(OC)nc(OC)n1` [drawing 595], the “response rating after 4 weeks” value came to 0 in assay [18] (.004 kg/ha), 0 in [18] (.008 kg/ha) and 3G in assay [18] (.032 kg/ha).
Take `CCOC(=O)c1ccccc1S(=O)(=O)NC(=O)Nc1nc(OC)cc(OC)n1` [drawing 598]: the “response rating after 4 weeks” value in assay [18] (.008 kg/ha), in [18] (.032 kg/ha), in assay [18] (.125 kg/ha) and in assay [18] (.25 kg/ha) was 10C throughout.
On to `CCCCOC(=O)c1ccccc1S(=O)(=O)NC(=O)Nc1nc(C)cc(OC)n1` [drawing 599], for which the “response rating after 4 weeks” value in assay [18] (.125 kg/ha) is given as 8C.
Take `COc1cc(C)nc(NC(=O)NS(=O)(=O)c2ccccc2C(=O)OC(C)C)n1` [drawing 601]: the “response rating after 4 weeks” value in assay [18] (.008 kg/ha), in [18] (.032 kg/ha), in assay [18] (.125 kg/ha) and in assay [18] (.25 kg/ha) was 10C in each case.
For the compound `COc1cc(OC)nc(NC(=O)NS(=O)(=O)c2ccccc2C(=O)OC(C)C)n1` [drawing 602], the “response rating after 4 weeks” value in [18] (.008 kg/ha), in [18] (.032 kg/ha), in assay [18] (.125 kg/ha) and in assay [18] (.25 kg/ha) was 10C in each case.
For `COC(=O)c1cc(Cl)ccc1S(=O)(=O)NC(=O)Nc1nc(OC)cc(OC)n1` [drawing 605], the “response rating after 4 weeks” value in assay [18] (.008 kg/ha), in assay [18] (.032 kg/ha) and in assay [18] (.125 kg/ha) was 10C in each case.
